Results as given in the supplement of paper PMC10307832.

Tests used:
Assay in all cases: relative viability (nuclei count vs DMSO), 5 days (fraction); higher = more cells survive
[1] = compound: CC1=C(C(=NN1)C)CC2=C(C3=C(S2)N(C(=O)N(C3=O)C)CC(C)C)C(=O)N4C[C@@H](CO4)O + Nc1ncn([C@H]2C[C@H](O)[C@@H](CO)O2)c(=O)n1 [Decitabine] (partner 2 µM)
In short: (§1)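 Values are medians from duplicate plates. Each reflects relative viability, defined as the nuclei count of treated wells over that of vehicle wells. Lung cancer cell lines in 1536-well plates were pin-tool dosed one day after seeding with one drug alone or with a fixed anchor-drug dose plus five library-drug doses (not always all listed) in √10 steps, then fixed, stained and imaged at 4× after 5 days.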

IDH-C35 + AZD7762 = compound: Cc1ccccc1C(C(=O)NC1CCCCC1)N(C(=O)Cn1ccnc1C)c1cccc(F)c1 [IDH-C35] + NC(=O)Nc1cc(-c2cccc(F)c2)sc1C(=O)N[C@H]1CCCNC1 [AZD7762] (partner 0.2 µM)
In short: as §1

IDH-C35 + Trametinib = compound: Cc1ccccc1C(C(=O)NC1CCCCC1)N(C(=O)Cn1ccnc1C)c1cccc(F)c1 [IDH-C35] + CC(=O)Nc1cccc(-n2c(=O)n(C3CC3)c(=O)c3c(Nc4ccc(I)cc4F)n(C)c(=O)c(C)c32)c1 [Trametinib] (partner 0.02 µM)
In short: as §1

[2] = compound: CC1=C(C(=NN1)C)CC2=C(C3=C(S2)N(C(=O)N(C3=O)C)CC(C)C)C(=O)N4C[C@@H](CO4)O + CS(=O)(=O)N1CCN(Cc2cc3nc(-c4cccc5[nH]ncc45)nc(N4CCOCC4)c3s2)CC1 [Pictilisib] (partner 1 µM)
In short: as §1

Cell Line	relative viability ([1]; first compound 0.0025 µM)	relative viability ([1]; first compound 0.007906 µM)	relative viability ([1]; first compound 0.025 µM)	relative viability ([1]; first compound 0.07906 µM)	relative viability ([1]; first compound 0.25 µM)	relative viability (IDH-C35 + AZD7762; first compound 0.08 µM)	relative viability (IDH-C35 + AZD7762; first compound 0.253 µM)	relative viability (IDH-C35 + AZD7762; first compound 0.8 µM)	relative viability (IDH-C35 + AZD7762; first compound 2.53 µM)	relative viability (IDH-C35 + AZD7762; first compound 8 µM)	relative viability (IDH-C35 + Trametinib; first compound 0.08 µM)	relative viability (IDH-C35 + Trametinib; first compound 0.253 µM)	relative viability (IDH-C35 + Trametinib; first compound 0.8 µM)	relative viability (IDH-C35 + Trametinib; first compound 2.53 µM)	relative viability (IDH-C35 + Trametinib; first compound 8 µM)	relative viability ([2]; first compound 0.0025 µM)	relative viability ([2]; first compound 0.007906 µM)	relative viability ([2]; first compound 0.025 µM)	relative viability ([2]; first compound 0.07906 µM)	relative viability ([2]; first compound 0.25 µM)
HCC-366	0.297	0.417	0.399	0.365	0.372	0.306	0.306	0.233	0.227	0.281	0.293	0.376	0.407	0.303	0.31	0.139	0.141	0.25	0.193	0.212
HCC-827	0.216	0.34	0.323	0.408	0.302	0.218	0.266	0.221	0.206	0.228	0.525	0.583	0.462	0.519	0.512	1.24	1.04	0.896	0.863	1.06
HOP-62	0.197	0.218	0.268	0.165	0.279	0.624	0.553	0.739	0.519	0.532	0.395	0.353	0.424	0.33	0.384	0.719	0.876	0.903	0.787	0.825
IA-LM																0.393	0.272	0.395	0.347	0.375
LC-2-ad	0.776	0.8	0.877	0.8	0.871	0.878	0.846	0.793	0.837	0.804	0.87	0.923	0.954	0.874	0.905	0.558	0.426	0.716	0.622	0.467
LCLC-97TM1	0.265	0.237	0.219	0.242	0.224	0.265	0.384	0.143		0.192	0.183	0.2	0.21		0.243	0.188	0.268	0.22	0.182	0.199
NCI-H520	0.476	0.448	0.45	0.423	0.371						0.645	0.669	0.818	0.665	0.721	0.32	0.259	0.304	0.269	0.288
NCI-H522	0.658	0.655	0.472	0.498	0.599	0.845	0.934	0.868	0.788	0.985	0.767	0.8	0.643	0.796	0.695					
NCI-H661	0.521	0.623	0.546	0.542	0.58						0.592	0.575	0.548	0.557	0.561	0.473	0.41	0.378	0.379	0.385
NCI-H1299																0.772	0.958	0.931	0.944	0.945
NCI-H1563																0.649	0.68	0.649	0.672	0.735
NCI-H1648	0.582	0.529	0.5	0.302	0.461		0.578	0.781	0.687	0.703		0.566	0.465	0.479	0.584					
NCI-H1650	0.365	0.424	0.388	0.292	0.309						0.548	0.599	0.614	0.644	0.504	0.575	0.587	0.714	0.67	0.708
NCI-H1703							0.141		0.131	0.148						0.223	0.224	0.264	0.256	0.242
NCI-H2009	0.412	0.408	0.342	0.418	0.407						0.29	0.308	0.314	0.34	0.288	0.875	0.884	0.842	0.998	0.909
NCI-H2023	0.23	0.255	0.211	0.231	0.244						0.476	0.503	0.548	0.528	0.475	0.308	0.288	0.276	0.23	0.236
NCI-H2228											0.456	0.559	0.458	0.836	0.546	0.546	0.356	0.439	0.352	0.443
NCI-H2342	0.74	0.784	0.81	0.693	0.799	0.521	0.563	0.498	0.572	0.384	0.771	0.762	0.769	0.767	0.736					
SK-LU-1	0.524	0.475	0.448	0.561	0.618						0.454	0.489	0.507	0.485	0.536	0.544	0.354	0.336	0.327	0.343
SK-MES-1	0.428	0.384	0.394	0.381	0.449						0.513	0.6	0.581	0.567	0.45	0.385	0.421	0.369	0.398	0.432
SW 900	0.449	0.405	0.547	0.469	0.412	0.564	0.787		0.505	0.549	0.855	0.773		0.91	0.767					
SW 1573	0.529	0.519	0.634	0.534	0.504						0.491	0.793	0.531	0.571	0.518	0.472	0.589	0.595	0.419	0.412
